Results from patent US9926277B2, “Pyridone compounds, pharmaceutical compositions thereof, and their therapeutic use for treating proliferative diseases” (BioTheryX, Inc., priority 2015, dated 2018).

Tested on: MDA-MB-231 cells
Assay: Viability of MDA-MB-231 cancer cells (CELLTITER, Example B5)
Type: cell-based
Settings: Homo sapiens, 72 hours incubation, read-out: Cell Viability (%); for viability at 0.005 µM: Conc. 5 nM; for viability at 0.01 µM: Conc. 10 nM; for viability at 0.02 µM: Conc. 20 nM
Description: Compounds A1 and A3 to A6 were tested for their ability to reduce the viability of MDA-MB-231 cells, along with ciclopirox (CPX). MDA-MB-231 is a metastatic human breast cancer cell line. […] Seventy-two hours after incubation, cell viability was measured using CELLTITER® from Promega.

Structure (SMILES)	viability at 0.005 µM	viability at 0.01 µM	viability at 0.02 µM	viability at 0.003 µM (Conc. 3 nM)
Cc1cc(C2CCCCC2)n(OS(=O)(=O)c2c(C(C)C)cc(C(C)C)cc2C(C)C)c(=O)c1 [Compound A5, 6-Cyclohexyl-4-methyl-2-oxopyridin-1(2H)-yl 2,4,6-triisopropylbenzenesulfonate]	62.9 ± 9.6%	50.6 ± 6.2%	40.6 ± 7.1%	–
CCCS(=O)(=O)On1c(C2CCCCC2)cc(C)cc1=O [Compound A4, 6-Cyclohexyl-4-methyl-2-oxopyridin-1(2H)-yl propane-1-sulfonate]	40.5 ± 11.4%	32.3 ± 0.6%	29.2 ± 1.7%	–
Cc1cc(C2CCCCC2)n(OS(=O)(=O)c2ccc(C(C)C)cc2)c(=O)c1 [Compound A3, 6-Cyclohexyl-4-methyl-2-oxopyridin-1(2H)-yl 4-isopropylbenzenesulfonate]	48.3 ± 4.9%	34.4 ± 6.9%	28.4 ± 1.3%	–
Cc1cc(C2CCCCC2)n(OS(=O)(=O)c2ccccc2)c(=O)c1 [Compound A1, 6-cyclohexyl-4-methyl-2-oxopyridin-1(2H)-yl benzenesulfonate]	46.8 ± 8%	31.1 ± 5.4%	22.1 ± 4.9%	–
Cc1cc(C2CCCCC2)n(OS(=O)(=O)c2cccs2)c(=O)c1 [Compound A6, 6-Cyclohexyl-4-methyl-2-oxopyridin-1(2H)-yl thiophene-2-sulfonate]	26.7 ± 4%	31.4 ± 8.4%	22.1 ± 3.6%	–
Cc1cc(C2CCCCC2)n(O)c(=O)c1 [CPX, ciclopirox, reference compound]	43.4 ± 2.2%	46.3 ± 11.1%	20.9 ± 1.5%	60.3 ± 2%
